According to ChEMBL document CHEMBL4613225, “Preparation and biological evaluation of BACE1 inhibitors: Leveraging trans-cyclopropyl moieties as ligand efficient conformational constraints” (Bioorg Med Chem, 2020):

Tests used:
[1] = Drug level in PDAPP V717F transgenic mouse plasma at 30 mg/kg, sc; assay type: ADME, organism-based; details: in vivo
[2] = Drug level in PDAPP V717F transgenic mouse plasma assessed as unbound fraction at 10 mg/kg, sc; assay type: ADME, organism-based; details: in vivo
[3] = Ratio of unbound fraction in PDAPP V717F transgenic mouse brain to plasma at 100 mg/kg, sc; assay type: ADME, organism-based; details: read-out: K(p,uu,brain)
[4] = Drug level in PDAPP V717F transgenic mouse brain at 100 mg/kg, sc; assay type: ADME, organism-based; details: in vivo, read-out: Ct
[5] = Metabolic stability in rat liver microsomes assessed as metabolized drug level after 30 mins in presence of NADPH by LC-MS/MS analysis; assay type: ADME, Microsome; details: read-out: Drug metabolism
[6] = Drug level in PDAPP V717F transgenic mouse plasma assessed as unbound fraction at 30 mg/kg, sc; assay type: ADME, organism-based; details: in vivo
[7] = Drug level in PDAPP V717F transgenic mouse plasma at 10 mg/kg, sc; assay type: ADME, organism-based; details: in vivo
[8] = Drug level in PDAPP V717F transgenic mouse plasma at 100 mg/kg, sc; assay type: ADME, organism-based; details: in vivo
[9] = Drug level in PDAPP V717F transgenic mouse plasma assessed as unbound fraction at 100 mg/kg, sc; assay type: ADME, organism-based; details: in vivo
[10] = Ratio of unbound fraction in PDAPP V717F transgenic mouse brain to plasma at 30 mg/kg, sc; assay type: ADME, organism-based; details: read-out: K(p,uu,brain)
[11] = Drug level in PDAPP V717F transgenic mouse brain at 30 mg/kg, sc; assay type: ADME, organism-based; details: in vivo, read-out: Ct
[12] = Metabolic stability in human pooled liver microsomes assessed as metabolized drug level after 30 mins in presence of NADPH by LC-MS/MS analysis; assay type: ADME, Microsome; details: read-out: Drug metabolism
[13] = Metabolic stability in dog liver microsomes assessed as metabolized drug level after 30 mins in presence of NADPH by LC-MS/MS analysis; assay type: ADME, Canis lupus familiaris, Microsome; details: read-out: Drug metabolism
[14] = Metabolic stability in mouse liver microsomes assessed as metabolized drug level after 30 mins in presence of NADPH by LC-MS/MS analysis; assay type: ADME, Microsome; details: read-out: Drug metabolism
[15] = Drug level in PDAPP V717F transgenic mouse brain at 10 mg/kg, sc; assay type: ADME, organism-based; details: in vivo, read-out: Ct
[16] = Ratio of unbound fraction in PDAPP V717F transgenic mouse brain to plasma at 10 mg/kg, sc; assay type: ADME, organism-based; details: read-out: K(p,uu,brain)
[17] = Permeability in MDCK-MDR1 cells at 5 uM after 1 hr by LC-MS/MS analysis; assay type: ADME, cell-based, Canis lupus familiaris; details: dog, read-out: permeability

Row | concentration [1] [nM] | Cp(f) [2] [nM] | Kp uu [3] | concentration [4] [nM] | metabolised at 0.5 h [5] [%] | Cp(f) [6] [nM] | concentration [7] [nM] | concentration [8] [nM] | Cp(f) [9] [nM] | Kp uu [10] | concentration [11] [nM] | metabolised at 0.5 h [12] [%] | metabolised at 0.5 h [13] [%] | metabolised at 0.5 h [14] [%] | concentration [15] [nM] | Kp uu [16] | Papp at 1 h, 5 µM [17] [×10⁻⁶ cm/s] | Compound
1 | 326 | 17 | 0.16 | 389 | 98 | 41 | 133 | 815 | 102 | 0.17 | 176 | 31 | 79 | 98 | 63 | 0.18 | 36 | C[C@@H]1C[C@H]1COC(C)(C)[C@@H]1C[C@H]1[C@]12CN(c3ncccn3)C[C@H]1CSC(N)=N2
2 |  |  |  |  | 55 |  |  |  |  |  |  | 13 | 28 | 33 |  |  | 8 | C[C@@H]1C[C@H]1CNC(=O)[C@@H]1C[C@H]1[C@]12CN(c3ncccn3)C[C@H]1CSC(N)=N2
